Data from the supplement of paper PMC10307832.

How the values were obtained:
Experiment in all cases: relative viability (nuclei count vs DMSO), 5 days (fraction); higher = more cells survive
A549 = tested on: A549
Method in brief: (§1)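 Lung cancer cell lines were pin-tool dosed in 1536-well plates on the day after seeding, with either a lone drug or a fixed anchor-drug dose plus five library-drug doses (not always all listed) in √10 steps. Nuclei were counted on 4× images after 5 days. Relative viability is the ratio of treated-well to vehicle-well nuclei counts, with each value a median of duplicate plates.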

COR-L23 = tested on: COR-L23
Method in brief: as §1

Calu-6 = tested on: Calu-6
Method in brief: as §1

ChaGo-K-1 = tested on: ChaGo-K-1
Method in brief: as §1

EBC-1 = tested on: EBC-1
Method in brief: as §1

EPLC-272H = tested on: EPLC-272H
Method in brief: as §1

HCC-366 = tested on: HCC-366
Method in brief: as §1

IA-LM = tested on: IA-LM
Method in brief: as §1

NCI-H1299 = tested on: NCI-H1299
Method in brief: as §1

NCI-H1648 = tested on: NCI-H1648
Method in brief: as §1

NCI-H1703 = tested on: NCI-H1703
Method in brief: as §1

NCI-H1915 = tested on: NCI-H1915
Method in brief: as §1

NCI-H838 = tested on: NCI-H838
Method in brief: as §1

SW 900 = tested on: SW 900
Method in brief: as §1

COCC1(CO)C(=O)C2CCN1CC2 (centres undefined) [PRIMA-1MET] + O=C(c1cc(Cc2n[nH]c(=O)c3ccccc23)ccc1F)N1CCN(C(=O)C2CC2)CC1 [Olaparib] (partner 8 µM)
relative viability (A549; first compound 0.2 µM): 0.528 | relative viability (A549; first compound 0.6325 µM): 0.365 | relative viability (A549; first compound 2 µM): 0.379 | relative viability (A549; first compound 6.325 µM): 0.371 | relative viability (A549; first compound 20 µM): 0.266 | relative viability (COR-L23; first compound 0.2 µM): 0.38 | relative viability (COR-L23; first compound 0.6325 µM): 0.315 | relative viability (COR-L23; first compound 2 µM): 0.379 | relative viability (COR-L23; first compound 6.325 µM): 0.315 | relative viability (COR-L23; first compound 20 µM): 0.106 | relative viability (Calu-6; first compound 0.2 µM): 0.547 | relative viability (Calu-6; first compound 0.6325 µM): 0.588 | relative viability (Calu-6; first compound 2 µM): 0.594 | relative viability (Calu-6; first compound 6.325 µM): 0.516 | relative viability (Calu-6; first compound 20 µM): 0.443 | relative viability (ChaGo-K-1; first compound 0.2 µM): 0.461 | relative viability (ChaGo-K-1; first compound 0.6325 µM): 0.407 | relative viability (ChaGo-K-1; first compound 2 µM): 0.437 | relative viability (ChaGo-K-1; first compound 6.325 µM): 0.426 | relative viability (ChaGo-K-1; first compound 20 µM): 0.318 | relative viability (EBC-1; first compound 0.2 µM): 0.692 | relative viability (EBC-1; first compound 0.6325 µM): 0.712 | relative viability (EBC-1; first compound 2 µM): 0.701 | relative viability (EBC-1; first compound 6.325 µM): 0.828 | relative viability (EBC-1; first compound 20 µM): 0.7 | relative viability (EPLC-272H; first compound 0.2 µM): 0.655 | relative viability (EPLC-272H; first compound 0.6325 µM): 0.89 | relative viability (EPLC-272H; first compound 2 µM): 0.911 | relative viability (EPLC-272H; first compound 6.325 µM): 0.694 | relative viability (EPLC-272H; first compound 20 µM): 0.0737 | relative viability (HCC-366; first compound 0.2 µM): 0.396 | relative viability (HCC-366; first compound 0.6325 µM): 0.346 | relative viability (HCC-366; first compound 2 µM): 0.328 | relative viability (HCC-366; first compound 6.325 µM): 0.34 | relative viability (HCC-366; first compound 20 µM): 0.0865 | relative viability (IA-LM; first compound 0.2 µM): 0.867 | relative viability (IA-LM; first compound 0.6325 µM): 0.676 | relative viability (IA-LM; first compound 2 µM): 0.905 | relative viability (IA-LM; first compound 6.325 µM): 0.819 | relative viability (IA-LM; first compound 20 µM): 0.788 | relative viability (NCI-H1299; first compound 0.2 µM): 0.984 | relative viability (NCI-H1299; first compound 0.6325 µM): 0.921 | relative viability (NCI-H1299; first compound 2 µM): 0.99 | relative viability (NCI-H1299; first compound 6.325 µM): 0.959 | relative viability (NCI-H1299; first compound 20 µM): 0.984 | relative viability (NCI-H1648; first compound 0.2 µM): 0.747 | relative viability (NCI-H1648; first compound 2 µM): 1.43 | relative viability (NCI-H1648; first compound 20 µM): 0.912 | relative viability (NCI-H1703; first compound 0.2 µM): 0.422 | relative viability (NCI-H1703; first compound 6.325 µM): 0.769 | relative viability (NCI-H1703; first compound 20 µM): 0.0733 | relative viability (NCI-H1915; first compound 0.2 µM): 0.249 | relative viability (NCI-H1915; first compound 0.6325 µM): 0.235 | relative viability (NCI-H1915; first compound 2 µM): 0.239 | relative viability (NCI-H1915; first compound 6.325 µM): 0.256 | relative viability (NCI-H1915; first compound 20 µM): 0.254 | relative viability (NCI-H838; first compound 0.2 µM): 0.788 | relative viability (NCI-H838; first compound 0.6325 µM): 0.76 | relative viability (NCI-H838; first compound 2 µM): 0.809 | relative viability (NCI-H838; first compound 6.325 µM): 0.789 | relative viability (NCI-H838; first compound 20 µM): 0.579 | relative viability (SW 900; first compound 0.2 µM): 1.06 | relative viability (SW 900; first compound 0.6325 µM): 0.888 | relative viability (SW 900; first compound 6.325 µM): 0.882 | relative viability (SW 900; first compound 20 µM): 0.0786

COCC1(CO)C(=O)C2CCN1CC2 (centres undefined) [PRIMA-1MET] + C[C@@H](Oc1cc(-c2cnn(C3CCNCC3)c2)cnc1N)c1c(Cl)ccc(F)c1Cl [Crizotinib] (partner 1 µM)
relative viability (A549; first compound 0.2 µM): 0.961 | relative viability (A549; first compound 0.6325 µM): 0.577 | relative viability (A549; first compound 2 µM): 0.813 | relative viability (A549; first compound 6.325 µM): 0.817 | relative viability (A549; first compound 20 µM): 0.746 | relative viability (COR-L23; first compound 0.2 µM): 0.704 | relative viability (COR-L23; first compound 0.6325 µM): 0.612 | relative viability (COR-L23; first compound 2 µM): 0.61 | relative viability (COR-L23; first compound 6.325 µM): 0.565 | relative viability (COR-L23; first compound 20 µM): 0.0228 | relative viability (Calu-6; first compound 0.2 µM): 0.795 | relative viability (Calu-6; first compound 0.6325 µM): 0.901 | relative viability (Calu-6; first compound 2 µM): 0.825 | relative viability (Calu-6; first compound 6.325 µM): 0.886 | relative viability (Calu-6; first compound 20 µM): 0.627 | relative viability (ChaGo-K-1; first compound 0.2 µM): 1.31 | relative viability (ChaGo-K-1; first compound 0.6325 µM): 0.898 | relative viability (ChaGo-K-1; first compound 2 µM): 1.02 | relative viability (ChaGo-K-1; first compound 6.325 µM): 1.15 | relative viability (ChaGo-K-1; first compound 20 µM): 1.02 | relative viability (EBC-1; first compound 0.2 µM): 0.19 | relative viability (EBC-1; first compound 0.6325 µM): 0.174 | relative viability (EBC-1; first compound 2 µM): 0.197 | relative viability (EBC-1; first compound 6.325 µM): 0.192 | relative viability (EBC-1; first compound 20 µM): 0.212 | relative viability (EPLC-272H; first compound 0.2 µM): 0.989 | relative viability (EPLC-272H; first compound 0.6325 µM): 0.867 | relative viability (EPLC-272H; first compound 2 µM): 0.816 | relative viability (EPLC-272H; first compound 6.325 µM): 0.851 | relative viability (EPLC-272H; first compound 20 µM): 0.262 | relative viability (HCC-366; first compound 0.2 µM): 0.702 | relative viability (HCC-366; first compound 0.6325 µM): 0.515 | relative viability (HCC-366; first compound 6.325 µM): 0.506 | relative viability (HCC-366; first compound 20 µM): 0.009 | relative viability (IA-LM; first compound 0.2 µM): 0.856 | relative viability (IA-LM; first compound 0.6325 µM): 0.868 | relative viability (IA-LM; first compound 2 µM): 0.955 | relative viability (IA-LM; first compound 6.325 µM): 0.851 | relative viability (IA-LM; first compound 20 µM): 0.838 | relative viability (NCI-H1299; first compound 0.2 µM): 0.988 | relative viability (NCI-H1299; first compound 0.6325 µM): 0.728 | relative viability (NCI-H1299; first compound 2 µM): 1 | relative viability (NCI-H1299; first compound 6.325 µM): 0.978 | relative viability (NCI-H1299; first compound 20 µM): 0.955 | relative viability (NCI-H1703; first compound 0.2 µM): 0.749 | relative viability (NCI-H1703; first compound 0.6325 µM): 0.861 | relative viability (NCI-H1703; first compound 2 µM): 0.784 | relative viability (NCI-H1703; first compound 6.325 µM): 0.377 | relative viability (NCI-H1703; first compound 20 µM): 0.0587 | relative viability (NCI-H1915; first compound 0.2 µM): 0.975 | relative viability (NCI-H1915; first compound 0.6325 µM): 0.703 | relative viability (NCI-H1915; first compound 2 µM): 0.794 | relative viability (NCI-H1915; first compound 6.325 µM): 0.912 | relative viability (NCI-H1915; first compound 20 µM): 0.852 | relative viability (NCI-H838; first compound 0.2 µM): 1.06 | relative viability (NCI-H838; first compound 0.6325 µM): 0.755 | relative viability (NCI-H838; first compound 2 µM): 0.793 | relative viability (NCI-H838; first compound 6.325 µM): 0.906 | relative viability (NCI-H838; first compound 20 µM): 0.318
